Experimental data taken from patent publication US11905306B2 (priority 2021, dated 2024).

Columns and labels:
in vitro = conditions: African green monkey
Toronto 2 SARS CoV-1 = assay: organism not typed; format: cell-based; conditions: Vero C1008, 72 h, read-out: SARS-1 EC50 (μM) VeroE6
SARS-2 [1] = assay: microbe, parasite or virus in culture; format: cell-based; conditions: Severe acute respiratory syndrome coronavirus 2, read-out: SARS-2 VU-EC50 (μM) (A549-hACE2)
SARS-2 [2] = test system: SARS-2
USA_WA1/2020 SARS CoV-2 = assay: microbe, parasite or virus in culture; format: cell-based; conditions: Severe acute respiratory syndrome coronavirus 2, Vero C1008, 72 h, read-out: SARS-2 EC50 (μM) VeroE6

Compound: CC(C)n1nccc1-c1ccc(NC(=O)c2cccc(C#Cc3ccccn3)c2)cc1 [Compound 69, N-(4-(1-isopropyl-1H-pyrazol-5-yl)phenyl)-3-(pyridin-2-ylethynyl)benzamide]
- CC50 (in vitro): > 30000 nM
- EC50 (Toronto 2 SARS CoV-1): 0.24 µM
- EC50 (SARS-2 [1]): 0.22 µM
- SARS-2 VU-VTR @ 20 μM (A549-hACE2) (logs) (SARS-2 [2]): 3.3 logs
- EC50 (USA_WA1/2020 SARS CoV-2): 0.45 µM

Compound: O=C1CCc2cc(C(=O)Nc3cccc(C#Cc4ccccn4)c3)ccc2N1 [Compound 1, 2-Oxo-N-(3-(pyridin-2-ylethynyl)phenyl)-1,2,3,4-tetrahydroquinoline-6-carboxamide]
- CC50 (in vitro): > 30000 nM
- EC50 (Toronto 2 SARS CoV-1): 5.07 ± 2.89 µM
- EC50 (SARS-2 [1]): 7.32 µM
- SARS-2 VU-VTR @ 20 μM (A549-hACE2) (logs) (SARS-2 [2]): 1.95 logs
- EC50 (USA_WA1/2020 SARS CoV-2): 5.81 ± 2.51 µM

Compound: CCOP(=O)(OCC)c1ccc(NC(=O)c2cccc(C#Cc3ccccn3)c2)cc1 [Compound 73, Diethyl (4-(3-(pyridin-2-ylethynyl)benzamido)phenyl)phosphonate]
- CC50 (in vitro): > 30000 nM
- EC50 (Toronto 2 SARS CoV-1): 0.18 µM
- EC50 (SARS-2 [1]): 0.003 µM
- SARS-2 VU-VTR @ 20 μM (A549-hACE2) (logs) (SARS-2 [2]): 2.93 logs
- EC50 (USA_WA1/2020 SARS CoV-2): 0.45 µM

Compound: CC1(C)CN(c2ccc(NC(=O)c3cccc(C#Cc4ccccn4)c3)cc2)C1=O [Compound 58, N-(4-(3,3-dimethyl-2-oxoazetidin-1-yl)phenyl)-3-(pyridin-2-ylethynyl)benzamide]
- CC50 (in vitro): > 40000 nM
- EC50 (Toronto 2 SARS CoV-1): 0.3 µM
- EC50 (SARS-2 [1]): 0.38 µM
- SARS-2 VU-VTR @ 20 μM (A549-hACE2) (logs) (SARS-2 [2]): 1.93 logs
- EC50 (USA_WA1/2020 SARS CoV-2): 0.5 µM

Compound: COc1cc(C#Cc2ccccn2)cc(NC(=O)c2ccc3c(c2)CCC(=O)N3)c1 [Compound 46, N-(3-Methoxy-5-(pyridin-2-ylethynyl)phenyl)-2-oxo-1,2,3,4-tetrahydroquinoline-6-carboxamide]
- CC50 (in vitro): > 30000 nM
- EC50 (Toronto 2 SARS CoV-1): 0.83 µM
- EC50 (SARS-2 [1]): 0.53 µM
- SARS-2 VU-VTR @ 20 μM (A549-hACE2) (logs) (SARS-2 [2]): 2.66 logs
- EC50 (USA_WA1/2020 SARS CoV-2): 0.78 µM
